In US20220315554A1, “COMPOUNDS COMPRISING A […] LIGAND AND USE THEREOF” (priority 2019, published 2022):
Numbered stars: 1 amine (or outer) side, 2 acyl side, 3 side chain; on linkers, the order of the positions; unused ones are H or OH. Bridge positions count the residues as written; N and C are the ends. Square brackets hold non-standard residues; d marks the D form. Peptide text beside a SMILES is read from it. * marks the point of attachment. X3 = NC(=O)[C@H](CCCCNC(=O)CN1CCN(CC(=O)O)CCN(CC(=O)O)CCN(CC(=O)O)CC1)NC(=O)CCC(=O)NCCCOCCOCCOCCCN*; mXylylene = c1cc(C[*:1])cc(C[*:2])c1; 4Pal = N[C@@H](Cc1ccncc1)C(=O)O; 2Thi = N[C@@H](Cc1cccs1)C(=O)O; Hexanoyl = CCCCCC(=O)*

Legend:
[1] = biological target: T1, FAP-expressing human WI-38 fibroblasts (Homo sapiens, UniProt Q12884); experiment: Competitive FACS binding assay; settings: pIC50 Category (FACS), competition with 3 nM Cy5-labeled compound, WI-38 fibroblasts, 4° C., 1 hour
T1 construct: FAP-expressing human WI-38 fibroblasts (ECACC) were cultured in EMEM; host or cells: WI-38 human fibroblasts
T1 sequence (Q12884 1-760): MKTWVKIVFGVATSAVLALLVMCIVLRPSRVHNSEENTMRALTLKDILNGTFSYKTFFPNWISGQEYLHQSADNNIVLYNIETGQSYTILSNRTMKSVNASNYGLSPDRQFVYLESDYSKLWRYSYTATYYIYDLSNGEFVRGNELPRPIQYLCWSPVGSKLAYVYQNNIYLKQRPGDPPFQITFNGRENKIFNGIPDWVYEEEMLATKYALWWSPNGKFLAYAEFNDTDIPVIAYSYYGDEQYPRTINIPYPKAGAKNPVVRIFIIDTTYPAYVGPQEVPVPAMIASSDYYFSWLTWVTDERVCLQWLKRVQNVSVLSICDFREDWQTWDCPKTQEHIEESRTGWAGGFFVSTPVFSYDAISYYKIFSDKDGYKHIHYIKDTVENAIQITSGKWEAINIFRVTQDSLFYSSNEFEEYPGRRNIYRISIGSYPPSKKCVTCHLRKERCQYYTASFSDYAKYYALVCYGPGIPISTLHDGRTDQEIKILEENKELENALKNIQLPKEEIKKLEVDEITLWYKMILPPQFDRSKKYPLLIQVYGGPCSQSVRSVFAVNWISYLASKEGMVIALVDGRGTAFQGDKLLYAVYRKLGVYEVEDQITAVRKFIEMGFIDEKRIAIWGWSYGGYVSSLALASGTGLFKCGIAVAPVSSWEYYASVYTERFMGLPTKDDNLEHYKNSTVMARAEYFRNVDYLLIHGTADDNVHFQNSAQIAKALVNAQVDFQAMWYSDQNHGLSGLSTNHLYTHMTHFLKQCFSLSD
Method: Cells were analyzed in an Attune NxT flow cytometer. […]

[2] = biological target: T2, Human recombinant FAP (Homo sapiens, UniProt Q12884); experiment: FRET-based FAP protease activity assay; format: biochemical; design: purchased R&D systems 3715-SE; settings: pIC50 Category (Activity), recombinant human FAP, FRET substrate, 37° C.
T2 sequence (Q12884 1-760): T1 sequence (Q12884 1-760)

Row | SMILES | IC50 [1] | IC50 [2]
1 | CSCC[C@H](NC(C)=O)C(=O)N[C@H]1CSCc2cccc(c2)CSC[C@@H](C(=O)N[C@@H](C)C(=O)N[C@@H](Cc2c[nH]cn2)C(=O)N[C@@H](Cc2ccccc2)C(=O)N[C@@H](CCCNC(=N)N)C(=O)N[C@@H](CC(=O)O)C(N)=O)NC(=O)[C@H](Cc2ccccc2)NC(=O)[C@H](CCC(=O)O)NC(=O)[C@H]([C@@H](C)O)NC(=O)[C@@H]2CCCN2C(=O)[C@@H]2CCCN2C1=O [3BP-3194, Ac-Met-[Cys(3MeBn)-Pro-Pro-Thr-Glu-Phe-Cys]-Ala-His-Phe-Arg-Asp-NH2] (Ac-MCPPTEFCAHFRD-NH2; linker 2-8 via mXylylene) | 10 to 79.4 nM | 10 to 79.4 nM
2 | CSCC[C@H](NC(C)=O)C(=O)N[C@H]1CSCc2cccc(c2)CSC[C@@H](C(=O)N[C@@H](CC(=O)O)C(=O)N[C@@H](C)C(=O)N[C@@H](Cc2ccccc2)C(=O)N[C@@H](CCCNC(=N)N)C(=O)N[C@@H](CC(=O)O)C(N)=O)NC(=O)[C@H](Cc2ccccc2)NC(=O)[C@H](CCC(=O)O)NC(=O)[C@H]([C@@H](C)O)NC(=O)[C@@H]2CCCN2C(=O)[C@@H]2CCCN2C1=O [3BP-3195, Ac-Met-[Cys(3MeBn)-Pro-Pro-Thr-Glu-Phe-Cys]-Asp-Ala-Phe-Arg-Asp-NH2] (Ac-MCPPTEFCDAFRD-NH2; linker 2-8 via mXylylene) | < 10 nM | 10 to 79.4 nM
3 | CSCC[C@H](NC(C)=O)C(=O)N[C@H]1CSCc2cccc(c2)CSC[C@@H](C(=O)N[C@@H](CC(=O)O)C(=O)N[C@@H](Cc2c[nH]cn2)C(=O)N[C@@H](Cc2ccccc2)C(=O)N[C@@H](C)C(=O)N[C@@H](CC(=O)O)C(N)=O)NC(=O)[C@H](Cc2ccccc2)NC(=O)[C@H](CCC(=O)O)NC(=O)[C@H]([C@@H](C)O)NC(=O)[C@@H]2CCCN2C(=O)[C@@H]2CCCN2C1=O [3BP-3197, Ac-Met-[Cys(3MeBn)-Pro-Pro-Thr-Glu-Phe-Cys]-Asp-His-Phe-Ala-Asp-NH2] (Ac-MCPPTEFCDHFAD-NH2; linker 2-8 via mXylylene) | 100 to 794 nM | 100 to 794 nM
4 | CSCC[C@H](NC(C)=O)C(=O)N[C@H]1CSCc2cccc(c2)CSC[C@@H](C(=O)N[C@@H](CC(=O)O)C(=O)N[C@@H](Cc2c[nH]cn2)C(=O)N[C@@H](Cc2ccccc2)C(=O)N[C@@H](CCCNC(=N)N)C(=O)N[C@@H](C)C(N)=O)NC(=O)[C@H](Cc2ccccc2)NC(=O)[C@H](CCC(=O)O)NC(=O)[C@H]([C@@H](C)O)NC(=O)[C@@H]2CCCN2C(=O)[C@@H]2CCCN2C1=O [3BP-3198, Ac-Met-[Cys(3MeBn)-Pro-Pro-Thr-Glu-Phe-Cys]-Asp-His-Phe-Arg-Ala-NH2] (Ac-MCPPTEFCDHFRA-NH2; linker 2-8 via mXylylene) | < 10 nM | < 10 nM
5 | CSCC[C@H](NC(C)=O)C(=O)N[C@H]1CSCc2cccc(c2)CSC[C@@H](C(=O)N[C@@H](CC(=O)O)C(=O)N[C@@H](Cc2c[nH]cn2)C(=O)N[C@@H](Cc2ccccc2)C(N)=O)NC(=O)[C@H](Cc2ccccc2)NC(=O)[C@H](CCC(=O)O)NC(=O)[C@H]([C@@H](C)O)NC(=O)[C@@H]2CCCN2C(=O)[C@@H]2CCCN2C1=O [3BP-3199, Ac-Met-[Cys(3MeBn)-Pro-Pro-Thr-Glu-Phe-Cys]-Asp-His-Phe-NH2] (Ac-MCPPTEFCDHF-NH2; linker 2-8 via mXylylene) | 100 to 794 nM | 10 to 79.4 nM
6 | CSCC[C@H](NC(C)=O)C(=O)N[C@H]1CSCc2cccc(c2)CSC[C@@H](C(=O)N[C@@H](CC(=O)O)C(=O)N[C@@H](Cc2c[nH]cn2)C(=O)N[C@@H](Cc2ccccc2)C(=O)N[C@@H](CCCNC(=N)N)C(=O)N[C@@H](CC(=O)O)C(N)=O)NC(=O)[C@H](Cc2ccccc2)NC(=O)[C@H](CCC(=O)O)NC(=O)[C@H]([C@@H](C)O)NC(=O)[C@@H]2CCCN2C(=O)CNC1=O [3BP-3214, Ac-Met-[Cys(3MeBn)-Gly-Pro-Thr-Glu-Phe-Cys]-Asp-His-Phe-Arg-Asp-NH2] (Ac-MCGPTEFCDHFRD-NH2; linker 2-8 via mXylylene) | < 10 nM | < 10 nM
7 | CSCC[C@H](NC(C)=O)C(=O)N[C@H]1CSCc2cccc(c2)CSC[C@@H](C(=O)N[C@@H](CC(=O)O)C(=O)N[C@@H](Cc2c[nH]cn2)C(=O)N[C@@H](Cc2ccccc2)C(=O)N[C@@H](CCCNC(=N)N)C(=O)N[C@@H](CC(=O)O)C(N)=O)NC(=O)[C@H](Cc2ccccc2)NC(=O)[C@H](CCC(=O)O)NC(=O)[C@H]([C@@H](C)O)NC(=O)[C@@H]2CCCN2C(=O)[C@@H](C)NC1=O [3BP-3215, Ac-Met-[Cys(3MeBn)-ala-Pro-Thr-Glu-Phe-Cys]-Asp-His-Phe-Arg-Asp-NH2] (Ac-MC[dA]PTEFCDHFRD-NH2; linker 2-8 via mXylylene) | 100 to 794 nM | 100 to 794 nM
8 | CCCCCC(=O)N[C@H]1CSCc2cccc(c2)CSC[C@@H](C(=O)N[C@@H](CC(=O)O)C(=O)N[C@@H](CCCNC(=N)N)C(=O)O)NC(=O)[C@H](Cc2ccccc2)NC(=O)[C@H](CCC(=O)O)NC(=O)[C@H]([C@@H](C)O)NC(=O)[C@@H]2CCCN2C(=O)[C@@H]2CCCN2C1=O [3BP-3299, Hex-[Cys(3MeBn)-Pro-Pro-Thr-Glu-Phe-Cys]-Asp-Arg-NH2] (Hexanoyl-CPPTEFCDR-OH; linker 1-7 via mXylylene) | < 10 nM | < 10 nM

The next lines start with the values.

Row | IC50 [1] | IC50 [2] | SMILES
9 | < 10 nM | < 10 nM | CSCC[C@H](NC(C)=O)C(=O)N[C@H]1CSCc2cccc(c2)CSC[C@@H](C(=O)N[C@@H](CC(=O)O)C(=O)N[C@@H](Cc2c[nH]cn2)C(=O)N[C@@H](Cc2cccs2)C(=O)N[C@@H](CCCNC(=N)N)C(=O)N[C@@H](CC(=O)O)C(N)=O)NC(=O)[C@H](Cc2ccccc2)NC(=O)[C@H](CCC(=O)O)NC(=O)[C@H]([C@@H](C)O)NC(=O)[C@@H]2CCCN2C(=O)[C@@H]2CCCN2C1=O [3BP-3193, Ac-Met-[Cys(3MeBn)-Pro-Pro-Thr-Glu-Thi-Cys]-Asp-His-Phe-Arg-Asp-NH2] (Ac-MCPPTEFCDH[2Thi]RD-NH2; linker 2-8 via mXylylene)
10 | < 10 nM | < 10 nM | CSCC[C@H](NC(C)=O)C(=O)N[C@H]1CSCc2cccc(c2)CSC[C@@H](C(=O)N[C@@H](CC(=O)O)C(=O)N[C@@H](Cc2c[nH]cn2)C(=O)N[C@@H](Cc2ccccc2)C(=O)N[C@@H](CCCNC(=N)N)C(N)=O)NC(=O)[C@H](Cc2ccccc2)NC(=O)[C@H](CCC(=O)O)NC(=O)[C@H]([C@@H](C)O)NC(=O)[C@@H]2CCCN2C(=O)[C@@H]2CCCN2C1=O [3BP-3200, Ac-Met-[Cys(3MeBn)-Pro-Pro-Thr-Glu-Phe-Cys]-Asp-His-Phe-Arg-NH2] (Ac-MCPPTEFCDHFR-NH2; linker 2-8 via mXylylene)
11 | < 10 nM | < 10 nM | CSCC[C@H](NC(C)=O)C(=O)N[C@H]1CSCc2cccc(c2)CSC[C@@H](C(=O)N[C@@H](CC(=O)O)C(=O)N[C@@H](Cc2c[nH]cn2)C(=O)N[C@@H](Cc2ccccc2)C(=O)N[C@@H](CCCNC(=N)N)C(=O)N[C@H](CC(=O)O)C(N)=O)NC(=O)[C@H](Cc2ccccc2)NC(=O)[C@H](CCC(=O)O)NC(=O)[C@H]([C@@H](C)O)NC(=O)[C@@H]2CCCN2C(=O)[C@@H]2CCCN2C1=O [3BP-3213, Ac-Met-[Cys(3MeBn)-Pro-Pro-Thr-Glu-Phe-Cys]-Asp-His-Phe-Arg-asp-NH2] (Ac-MCPPTEFCDHFR[dD]-NH2; linker 2-8 via mXylylene)
12 | < 10 nM | < 10 nM | CCCCCC(=O)N[C@H]1CSCc2cccc(c2)CSC[C@@H](C(=O)N[C@@H](CC(=O)O)C(=O)N[C@@H](Cc2c[nH]cn2)C(=O)N[C@H](Cc2ccccc2)C(=O)N[C@@H](CCCNC(=N)N)C(=O)NCCCOCCOCCOCCCNC(=O)CCC(=O)N[C@@H](CCCCNC(=O)CN2CCN(CC(=O)O)CCN(CC(=O)O)CCN(CC(=O)O)CC2)C(N)=O)NC(=O)[C@H](Cc2ccccc2)NC(=O)[C@H](CCC(=O)O)NC(=O)[C@H]([C@@H](C)O)NC(=O)[C@@H]2CCCN2C(=O)[C@@H]2CCCN2C1=O [3BP-3276, Hex-[Cys(3MeBn)-Pro-Pro-Thr-Glu-Phe-Cys]-Asp-His-phe-Arg-Ttds-Lys(DOTA)-NH2] (Hexanoyl-CPPTEFCDH[dF]R-X3; linker 1-7 via mXylylene)
13 | < 10 nM | < 10 nM | CCCCCC(=O)N[C@H]1CSCc2cccc(c2)CSC[C@@H](C(=O)N[C@@H](CC(=O)O)C(=O)N[C@@H](Cc2c[nH]cn2)C(=O)N[C@@H](Cc2ccncc2)C(=O)N[C@H](CCCNC(=N)N)C(=O)NCCCOCCOCCOCCCNC(=O)CCC(=O)N[C@@H](CCCCNC(=O)CN2CCN(CC(=O)O)CCN(CC(=O)O)CCN(CC(=O)O)CC2)C(N)=O)NC(=O)[C@H](Cc2ccccc2)NC(=O)[C@H](CCC(=O)O)NC(=O)[C@H]([C@@H](C)O)NC(=O)[C@@H]2CCCN2C(=O)[C@@H]2CCCN2C1=O [3BP-3277, Hex-[Cys(3MeBn)-Pro-Pro-Thr-Glu-Phe-Cys]-Asp-His-Ppa-arg-Ttds-Lys(DOTA)-NH2] (Hexanoyl-CPPTEFCDH[4Pal][dR]-X3; linker 1-7 via mXylylene)
